From ChEMBL document CHEMBL3988442, “University of Dundee, Small-Polar-MMV Screening Library” (2021)

What was measured:
[1] = microbe, parasite or virus in culture; settings: Mycobacterium tuberculosis, 72 h, read-out: pIC50 (converted)
[2] = microbe, parasite or virus in culture; settings: Mycobacterium tuberculosis, 96 h, read-out: pIC50 (converted)

Compound	IC50 [1]	IC50 [2]
CCC(C)NC(=O)Cc1ccc2c(c1)OCCO2 (configuration not stated)	> 501 µM	> 501 µM
CCc1noc(Cn2nc(C(F)(F)F)ccc2=O)n1	47.8 µM	365 µM
COc1cc(NC(=O)NCc2nncn2C)ccc1Br	218 µM	> 501 µM
COCCNC(=O)Nc1ccc2c(c1)OC(C)(C)O2	65.7 µM	170 µM
COC(=O)c1ccc(NCC(=O)NC(N)=O)cc1	85.4 µM	58.3 µM
CC(C)c1noc(CN2CCN(C(=O)c3ccc(F)cc3)CC2)n1	> 50.1 µM	> 50.1 µM
Cc1c(Br)cccc1S(=O)(=O)NCCN	212 µM	> 501 µM
COC(=O)c1ccc(CCNC(=O)C2CCCO2)cc1 (configuration not stated)	281 µM	383 µM
Cc1noc(NC(=O)c2ccc(C(F)(F)F)nc2C)n1	164 µM	151 µM
COCCCSc1ccc(NCc2ccc(C)cn2)cc1	> 50.1 µM	49.1 µM
FC(F)(F)c1ccc(OC2CCNCC2)nc1	189 µM	230 µM
CSCCC(=O)N(C)Cc1cccc(-n2cccn2)c1	269 µM	286 µM
COC1CCN(C(=O)Cc2ccc(N(C)C)cc2)C1 (configuration not stated)	183 µM	122 µM
O=C(c1ccno1)N1CCCC(c2ncncc2-c2ccncc2)C1 (configuration not stated)	> 50.1 µM	> 50.1 µM
CC(=O)c1c(C)[nH]c(C(=O)OCC(=O)N(C)C)c1C	279 µM	286 µM
OCC1CCN(CCc2ccccc2)C1 (configuration not stated)	393 µM	243 µM
Cc1ccc(OCC(=O)Nc2nnn(C)n2)cc1	274 µM	> 501 µM
COCCN1CCC(CNC(=O)N2CCC(C)CC2)C1 (configuration not stated)	75.1 µM	83.9 µM
CC1CN(CCC(=O)NC(N)=O)CCO1 (configuration not stated)	80.3 µM	286 µM
CCCc1nc(N2CCCCCC2)c2c(n1)c(C)nn2CC	23.6 µM	43.2 µM
CCc1cc(CNC(=O)c2ccc(F)c(F)c2)[nH]n1	175 µM	102 µM
COc1ccc(Br)c(CN)c1	116 µM	184 µM

Compound	IC50 [1]	IC50 [2]
Cc1cnc(NC(C)Cc2cccnc2)nc1N(C)C (configuration not stated)	> 50.1 µM	> 50.1 µM
Nc1nnnn1NCc1cccc(Cl)c1Cl	> 50.1 µM	> 50.1 µM
CCOc1ccc(Cl)cc1CNCCNCC(C)O (configuration not stated)	254 µM	30.7 µM
Cc1cccnc1NCCNC1CSCCSC1	248 µM	> 501 µM
O=C(Cn1cccn1)NCCc1ccc2c(c1)OCO2	251 µM	> 501 µM
CN1CCc2nc(NC(=O)CC(C)(C)C)sc2C1	210 µM	127 µM
COc1ccc(CNc2ccncc2F)cc1C#N	> 501 µM	> 501 µM
CC(C)(C)OC(=O)N1CC(F)(F)CC1CO (configuration not stated)	> 501 µM	> 501 µM
CCOCc1cnc2n1CCN(C(=O)Cc1ccccn1)C2C (configuration not stated)	> 50.1 µM	> 50.1 µM
c1csc(CN2CC(c3nc(-c4cnccn4)no3)C2)c1	> 50.1 µM	> 50.1 µM
COc1ccc2c(c1)NCC(C)O2 (configuration not stated)	94.8 µM	214 µM
Cc1ccc(C(=O)N2CCCC(c3cc(C(F)(F)F)[nH]n3)C2)o1 (configuration not stated)	15.4 µM	26.2 µM
CCN(C1CC1)S(=O)(=O)c1ccc2c(c1)OCCO2	162 µM	> 501 µM
CSCc1cc(F)ccc1CNC(=O)c1cn[nH]c1C	> 501 µM	> 501 µM
Cc1nc(-c2nnc[nH]2)sc1C(=O)N1CCCC1Cn1cccn1 (configuration not stated)	> 50.1 µM	> 50.1 µM
O=c1c2ccccc2nc2n1C(CSc1ccc(F)cc1)CN2 (configuration not stated)	> 50.1 µM	> 50.1 µM
CCCOc1ccc(NS(=O)(=O)N(C)C)cc1Cl	196 µM	> 501 µM
Cc1cc(Cl)ccc1NC(=O)CSc1n[nH]c(N)n1	> 501 µM	> 501 µM
NC1CCCN(S(=O)(=O)C=Cc2cccc(Cl)c2)C1 (configuration not stated)	216 µM	257 µM
CCC1(CO)CCCN(C(=O)c2ccc(COC)s2)C1 (configuration not stated)	148 µM	246 µM
O=C(NC1CCCCC1)c1ccc(CO)cc1	161 µM	143 µM
CC(C(=O)NCc1cccs1)S(=O)(=O)C1CCCC1 (configuration not stated)	164 µM	> 501 µM

Compound	IC50 [1]	IC50 [2]
Cc1ccc(C(=O)NCCCN(C)S(C)(=O)=O)cc1-n1cccc1	30.9 µM	> 50.1 µM
CCC(C)Oc1ccc(CNCCNS(C)(=O)=O)cc1Cl (configuration not stated)	> 50.1 µM	> 50.1 µM
NCCn1cc(C(=O)NCCSC2CCCCC2)nn1	178 µM	129 µM
Cn1ccc(CNC(=O)NCC2CC2)c1	> 501 µM	> 501 µM
COc1c(F)cc(CN2CC[C@@H](N)[C@H](O)C2)cc1Cl	279 µM	> 501 µM
CCN1C[C@H](NC(=O)c2ccc(Cl)s2)[C@@H](OC)C1	137 µM	> 501 µM
Cc1ccc(OC(C)CN)cc1 (configuration not stated)	77 µM	166 µM
CCc1ccc2c(c1)[C@@H](N)CCO2	> 501 µM	> 501 µM
CC(C)(N)C(O)c1ccc(Br)cc1 (configuration not stated)	126 µM	> 501 µM
CN(Cc1nccs1)C(=O)C1COc2ccccc2C1 (configuration not stated)	242 µM	195 µM
CC1=CCN(C(=O)c2ccsc2)CC1	160 µM	> 501 µM
Nc1ncnc2[nH]c(N3CCCCC3)nc12	> 50.1 µM	> 50.1 µM
CCn1nc(C)c2nc(C)nc(NCCc3ccccc3)c21	32.5 µM	> 50.1 µM
CC(C)CCN1CCNC(=O)C1CC(=O)NCCc1cc(O)ncn1 (configuration not stated)	> 50.1 µM	> 50.1 µM
CN(C)S(=O)(=O)c1ccc(COC(=O)C2CC2)o1	> 501 µM	338 µM
CSCCC(=O)NCc1ccc(C)s1	> 501 µM	> 501 µM
Nc1ccc(CNc2nc(C3CC3)ns2)cn1	> 501 µM	> 501 µM
COc1cccc(Nc2ccc(N)nc2)c1	128 µM	241 µM
Cn1ncc2c(N3CCCN4CCC[C@H]4C3)nc(C(C)(C)C)nc21	> 50.1 µM	47 µM
O=C(c1c[nH]c2ccccc2c1=O)N1CCSCC1	27.8 µM	> 50.1 µM
CN(C)S(=O)(=O)N1CCCC1c1ccccc1Br (configuration not stated)	206 µM	273 µM
CN(C)S(=O)(=O)N1CCCC1COc1ccccc1 (configuration not stated)	360 µM	271 µM

Compound	IC50 [1]	IC50 [2]
CC(Nc1ccc(Br)cc1)c1nc(C2CC2)no1 (configuration not stated)	2.01 µM	0.994 µM
Cn1c(CO)nnc1SCC=Cc1ccccc1	240 µM	289 µM
CN(CC(=O)Nc1ccsc1)C(=O)c1ccco1	> 501 µM	> 501 µM
CNC(=O)CCSc1ccc2c(c1)OCCO2	143 µM	165 µM
CCS(=O)(=O)N(C)CCCNc1ccc(Cl)cn1	129 µM	163 µM
Cc1ccc(CN2CCOC3(CCN(C(=O)C4CC=CC4)CC3)C2)cc1	30.5 µM	40.9 µM
CN(CCc1ccc(Br)cc1)C(=O)CCCN	179 µM	> 501 µM
CC(C)OCc1cccc(CNc2cnn(C)c(=O)c2Cl)c1	19.1 µM	5.63 µM
Cc1cc(CN2CCCC2)cc(Oc2ccc3c(c2)CC(CN)O3)c1 (configuration not stated)	> 50.1 µM	> 50.1 µM
NCC1CCN(CCc2ccccc2)C1 (configuration not stated)	209 µM	213 µM
NC(=O)C1CCN(CCOc2ccc(Br)cc2)C1 (configuration not stated)	> 501 µM	> 501 µM
Cc1nc(NC(C)C)nc2c1CN(Cc1cccs1)CC2	> 50.1 µM	27 µM
CC(C)(C)OC(=O)c1ncccc1N	> 501 µM	265 µM
CCC1(CC)CCCN(C(=O)CS(=O)(=O)CC)CC1	72.7 µM	50.9 µM
Cc1cc(NCC2CCS(=O)(=O)C2)n2nc(C)cc2n1 (configuration not stated)	> 50.1 µM	> 50.1 µM
NCCCC(=O)N(Cc1ccccc1F)C1CCC1	231 µM	> 501 µM
Cc1nc(C2CCCN(C(=O)c3ccc(S(C)(=O)=O)cc3)C2)no1 (configuration not stated)	> 50.1 µM	> 50.1 µM
CCc1ccccc1CN1C(=O)CCC1=O	> 501 µM	> 501 µM
Cc1cc(C(C)NC(=O)CN2CSCC2=O)c(C)s1 (configuration not stated)	274 µM	> 501 µM
CN(C(=O)CN)c1ccc(-c2ccccc2)cc1	305 µM	260 µM
Cc1cc(CN)on1	293 µM	293 µM
CCN(CC)c1ccc(C(=O)Nc2cc[nH]n2)cn1	251 µM	> 501 µM

Compound	IC50 [1]	IC50 [2]
CC(C)c1ccc2c(c1)C(N)C(=O)N2 (configuration not stated)	> 501 µM	> 501 µM
Cc1ccc(NC(=O)C(C)N2CCC(O)CC2)cc1F (configuration not stated)	200 µM	284 µM
Cc1noc(C)c1CNC(=O)c1csc(S(N)(=O)=O)c1	> 501 µM	> 501 µM
CC(C)(C)OC(=O)N1CCC(n2cc(N)cn2)CC1	202 µM	287 µM
COc1ccc(-c2noc(C3(O)CCCC3)n2)cn1	282 µM	104 µM
CCOc1ccc(N(CC(=O)c2ccccc2)C2=NCCCCC2)cc1	22.4 µM	27.6 µM
Brc1cccc2c1CNCCO2	213 µM	> 501 µM
CSc1c(F)cc(NC(=O)NCCO)cc1F	> 501 µM	> 501 µM
O=C1CCCN1Cc1nnc(SCc2ccc3c(c2)CCC3)o1	22 µM	46.5 µM
CCCc1ccc2oc(C(=O)N3CCN(CCOC)CC3)c(C)c2c1	4.94 µM	4.11 µM
CN(C)c1ncccc1CNS(=O)(=O)c1ccccc1	> 501 µM	> 501 µM
CCCn1c(O)nnc1SCc1cccc(OC)n1	256 µM	436 µM
CC(c1ccccn1)N(C)C(=O)NCCn1c(=O)oc2ccccc21 (configuration not stated)	> 50.1 µM	> 50.1 µM
Cc1ccc2oc(N3CCNCC3)nc2c1	190 µM	> 501 µM
Nc1nnc(SCC(=O)NCCc2cccc(Cl)c2)s1	287 µM	> 501 µM
NCc1cc(Cl)ccn1	156 µM	301 µM
CCS(=O)(=O)N1CCC(c2nnc(CN3CCCCCC3)n2C)CC1	> 50.1 µM	> 50.1 µM
CC(C)N(C)S(=O)(=O)N1CCc2sccc2C1C (configuration not stated)	150 µM	207 µM
